The term Ki denotes a dissociation constant, usually derived from enzyme kinetics or from competition with a known ligand. A word on the AC50: it is the concentration giving half of the maximal activity seen. The term EC50 denotes the concentration needed to bring the measured effect to its halfway point. A word on the IC50: it is the concentration that inhibits the measured activity by half. For orientation: CC50 means the concentration giving 50% cytotoxicity.

The target of test [1] is Ribosomal protein S6 kinase alpha-3 (Homo sapiens, UniProt P51812). It is filed as functional.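 Note: measured within a kinome-wide profiling panel.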
Ribosomal protein S6 kinase alpha-3, sequence (P51812 whole entry): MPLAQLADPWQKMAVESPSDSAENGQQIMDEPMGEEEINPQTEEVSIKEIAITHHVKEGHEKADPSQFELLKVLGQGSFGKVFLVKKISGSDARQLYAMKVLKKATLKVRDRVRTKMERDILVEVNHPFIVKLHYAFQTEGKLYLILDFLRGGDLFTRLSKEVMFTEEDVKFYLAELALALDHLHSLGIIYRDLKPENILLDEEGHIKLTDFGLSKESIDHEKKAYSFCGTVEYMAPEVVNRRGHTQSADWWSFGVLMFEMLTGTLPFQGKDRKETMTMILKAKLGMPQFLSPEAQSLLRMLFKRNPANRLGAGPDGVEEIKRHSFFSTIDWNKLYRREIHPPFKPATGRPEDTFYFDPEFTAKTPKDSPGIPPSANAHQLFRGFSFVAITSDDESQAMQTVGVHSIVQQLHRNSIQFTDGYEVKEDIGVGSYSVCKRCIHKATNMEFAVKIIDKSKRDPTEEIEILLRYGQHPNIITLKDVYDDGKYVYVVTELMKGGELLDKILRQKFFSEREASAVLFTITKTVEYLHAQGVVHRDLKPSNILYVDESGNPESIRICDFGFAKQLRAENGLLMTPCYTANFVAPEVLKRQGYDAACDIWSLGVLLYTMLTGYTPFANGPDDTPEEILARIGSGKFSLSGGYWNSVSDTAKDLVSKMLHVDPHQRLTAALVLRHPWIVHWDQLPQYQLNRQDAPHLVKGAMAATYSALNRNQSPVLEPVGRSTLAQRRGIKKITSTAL
In test [2] the target is Proto-oncogene tyrosine-protein kinase receptor Ret (Homo sapiens, UniProt P07949). In kind it is functional.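 Note: measured within a kinome-wide profiling panel, RET as the panel member.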
Proto-oncogene tyrosine-protein kinase receptor Ret, sequence (P07949 whole entry): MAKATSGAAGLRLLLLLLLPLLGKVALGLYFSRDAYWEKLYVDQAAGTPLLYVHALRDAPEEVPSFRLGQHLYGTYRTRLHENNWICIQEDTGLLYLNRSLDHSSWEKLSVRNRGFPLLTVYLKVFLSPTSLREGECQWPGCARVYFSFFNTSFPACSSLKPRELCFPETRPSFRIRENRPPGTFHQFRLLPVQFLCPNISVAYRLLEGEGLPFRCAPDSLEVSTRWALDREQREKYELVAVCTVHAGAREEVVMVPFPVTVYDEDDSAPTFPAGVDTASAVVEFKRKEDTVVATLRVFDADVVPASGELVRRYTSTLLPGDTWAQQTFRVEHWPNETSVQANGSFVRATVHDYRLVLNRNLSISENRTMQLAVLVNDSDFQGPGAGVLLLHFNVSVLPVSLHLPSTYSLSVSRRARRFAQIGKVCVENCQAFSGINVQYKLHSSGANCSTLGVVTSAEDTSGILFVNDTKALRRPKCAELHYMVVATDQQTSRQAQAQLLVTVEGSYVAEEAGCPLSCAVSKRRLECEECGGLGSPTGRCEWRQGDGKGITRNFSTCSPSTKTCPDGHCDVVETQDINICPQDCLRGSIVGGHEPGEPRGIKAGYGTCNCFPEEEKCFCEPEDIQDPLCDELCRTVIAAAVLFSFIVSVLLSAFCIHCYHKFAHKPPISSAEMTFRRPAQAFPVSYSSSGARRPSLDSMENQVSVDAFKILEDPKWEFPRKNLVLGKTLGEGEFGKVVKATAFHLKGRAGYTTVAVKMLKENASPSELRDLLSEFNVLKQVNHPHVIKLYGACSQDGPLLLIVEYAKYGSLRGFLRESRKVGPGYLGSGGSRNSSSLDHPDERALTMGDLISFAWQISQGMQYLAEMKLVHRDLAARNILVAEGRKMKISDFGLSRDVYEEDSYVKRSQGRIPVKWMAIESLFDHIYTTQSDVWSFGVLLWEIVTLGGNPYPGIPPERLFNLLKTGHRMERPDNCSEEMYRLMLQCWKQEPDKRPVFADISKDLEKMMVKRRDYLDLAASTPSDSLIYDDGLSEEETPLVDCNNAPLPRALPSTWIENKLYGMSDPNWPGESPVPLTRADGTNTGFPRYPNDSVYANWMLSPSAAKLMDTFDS
Test [3] addresses Platelet-derived growth factor receptor beta (Homo sapiens, UniProt P09619). In kind it is functional.
Test [4] addresses G protein-coupled receptor kinase 5 (Homo sapiens, UniProt P34947). Kind of test: Navigating the Kinome. Panel member name: GPRK5. It is filed as functional.
Test [5] deals with T1, Histone-lysine N-methyltransferase NSD2 (Homo sapiens, UniProt O96028).
T1 sequence (O96028 whole entry): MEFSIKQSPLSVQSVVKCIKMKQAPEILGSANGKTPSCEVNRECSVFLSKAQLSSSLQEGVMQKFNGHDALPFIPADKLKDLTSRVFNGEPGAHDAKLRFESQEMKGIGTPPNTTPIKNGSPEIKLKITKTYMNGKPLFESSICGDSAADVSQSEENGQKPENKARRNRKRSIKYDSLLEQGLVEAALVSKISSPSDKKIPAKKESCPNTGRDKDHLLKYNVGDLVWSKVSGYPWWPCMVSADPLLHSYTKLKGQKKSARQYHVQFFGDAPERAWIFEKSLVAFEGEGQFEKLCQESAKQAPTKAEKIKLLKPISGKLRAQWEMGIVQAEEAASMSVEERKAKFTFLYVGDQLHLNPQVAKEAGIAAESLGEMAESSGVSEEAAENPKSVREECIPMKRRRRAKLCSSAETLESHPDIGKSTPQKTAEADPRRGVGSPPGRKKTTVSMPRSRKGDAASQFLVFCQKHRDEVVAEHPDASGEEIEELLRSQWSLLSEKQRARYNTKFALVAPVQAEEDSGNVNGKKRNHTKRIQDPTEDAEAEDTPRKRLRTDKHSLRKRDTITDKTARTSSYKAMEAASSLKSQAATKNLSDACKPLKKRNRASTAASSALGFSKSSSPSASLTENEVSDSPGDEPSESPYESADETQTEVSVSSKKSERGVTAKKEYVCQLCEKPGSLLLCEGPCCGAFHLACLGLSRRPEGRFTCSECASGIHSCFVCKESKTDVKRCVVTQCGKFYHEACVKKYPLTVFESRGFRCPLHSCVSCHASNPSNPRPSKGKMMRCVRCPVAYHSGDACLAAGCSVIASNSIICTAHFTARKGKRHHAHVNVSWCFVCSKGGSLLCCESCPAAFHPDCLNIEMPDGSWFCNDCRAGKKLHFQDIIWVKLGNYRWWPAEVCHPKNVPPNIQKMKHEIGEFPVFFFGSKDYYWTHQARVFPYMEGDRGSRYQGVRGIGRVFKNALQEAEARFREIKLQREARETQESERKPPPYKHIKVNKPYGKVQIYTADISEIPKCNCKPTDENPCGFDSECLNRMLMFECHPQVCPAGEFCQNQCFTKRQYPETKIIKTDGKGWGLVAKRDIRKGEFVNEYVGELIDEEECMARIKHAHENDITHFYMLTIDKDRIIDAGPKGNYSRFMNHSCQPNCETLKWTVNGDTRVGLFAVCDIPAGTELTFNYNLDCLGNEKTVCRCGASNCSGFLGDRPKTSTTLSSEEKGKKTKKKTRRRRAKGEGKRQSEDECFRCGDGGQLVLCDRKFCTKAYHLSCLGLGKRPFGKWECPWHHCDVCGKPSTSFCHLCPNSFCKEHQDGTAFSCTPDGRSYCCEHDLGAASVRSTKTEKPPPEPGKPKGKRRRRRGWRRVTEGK
It is filed as biochemical.

The subject of the next test is BJ. Kind of test: cytotoxicity toward BJ-TERT-LT-ST fibroblasts, dose response, cell-based, RAS-independent, luminescence (AID 1935).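 Note: BJ fibroblasts immortalized with TERT plus LT and ST oncogenes.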 In kind it is functional. The following applies: Homo sapiens.
In the next test the target is Nonstructural protein 1 (Influenza A virus, UniProt Q194T2). In kind it is functional, Influenza A virus (A/California/07/2009(H1N1)).
Nonstructural protein 1, sequence (Q194T2 whole entry): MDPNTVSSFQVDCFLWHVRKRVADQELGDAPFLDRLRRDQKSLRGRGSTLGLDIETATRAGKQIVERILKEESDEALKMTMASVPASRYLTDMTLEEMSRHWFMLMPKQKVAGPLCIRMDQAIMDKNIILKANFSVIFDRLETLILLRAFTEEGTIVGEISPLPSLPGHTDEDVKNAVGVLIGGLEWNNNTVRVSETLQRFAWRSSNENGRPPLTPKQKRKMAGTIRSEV
A further test deals with Vero. Kind of test: Vero cell cytotoxicity, cytotoxicity control for flavivirus capping enzyme inhibitors (AID 588742). In kind it is functional. The following applies: Chlorocebus sabaeus.
The target in test [6] is T2, Heat shock factor protein 1 (Mus musculus, UniProt P38532).
T2 sequence (P38532 whole entry): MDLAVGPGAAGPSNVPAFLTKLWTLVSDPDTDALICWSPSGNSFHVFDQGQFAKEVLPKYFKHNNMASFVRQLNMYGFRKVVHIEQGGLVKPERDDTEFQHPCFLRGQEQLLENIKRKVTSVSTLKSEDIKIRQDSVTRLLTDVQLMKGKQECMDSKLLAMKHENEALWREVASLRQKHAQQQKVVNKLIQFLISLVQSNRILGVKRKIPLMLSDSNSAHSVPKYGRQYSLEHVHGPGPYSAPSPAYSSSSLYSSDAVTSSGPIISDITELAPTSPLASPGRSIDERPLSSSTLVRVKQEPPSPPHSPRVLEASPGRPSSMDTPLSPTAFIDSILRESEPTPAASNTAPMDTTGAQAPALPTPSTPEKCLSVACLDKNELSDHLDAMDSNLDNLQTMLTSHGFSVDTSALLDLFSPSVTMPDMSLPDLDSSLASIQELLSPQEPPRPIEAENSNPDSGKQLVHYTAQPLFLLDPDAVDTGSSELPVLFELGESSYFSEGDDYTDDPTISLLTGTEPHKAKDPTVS
Kind of test: inhibition of MG132-induced HSE-luciferase signal, confirmation, cell-based, NIH3T3, luminescence, dose retest (AID 2382).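 Note: NIH3T3 fibroblasts with HSF1-driven luciferase reporter stressed by proteasome inhibitor MG132; luminescence from HSF1-driven luciferase expression after 8 hours of MG132 stress.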 It is filed as functional.

The structures appear in SMILES notation. The source made the active and inactive calls.

G protein-coupled receptor kinase 5, sequence (P34947 whole entry): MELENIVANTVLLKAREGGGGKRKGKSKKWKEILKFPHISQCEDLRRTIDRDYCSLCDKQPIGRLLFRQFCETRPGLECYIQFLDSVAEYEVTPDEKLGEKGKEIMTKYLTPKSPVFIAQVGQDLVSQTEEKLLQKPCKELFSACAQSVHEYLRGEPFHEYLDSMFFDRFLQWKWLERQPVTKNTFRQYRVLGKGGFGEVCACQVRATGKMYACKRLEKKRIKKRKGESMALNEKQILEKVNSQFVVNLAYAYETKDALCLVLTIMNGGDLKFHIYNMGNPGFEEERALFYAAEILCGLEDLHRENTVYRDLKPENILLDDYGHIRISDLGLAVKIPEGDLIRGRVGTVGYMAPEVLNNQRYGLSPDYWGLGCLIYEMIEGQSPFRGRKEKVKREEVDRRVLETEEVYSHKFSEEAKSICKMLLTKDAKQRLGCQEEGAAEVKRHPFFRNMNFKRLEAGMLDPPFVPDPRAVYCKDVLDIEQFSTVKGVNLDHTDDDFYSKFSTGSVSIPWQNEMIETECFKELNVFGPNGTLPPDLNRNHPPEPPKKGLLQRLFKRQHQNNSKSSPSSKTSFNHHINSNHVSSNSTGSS
Platelet-derived growth factor receptor beta, sequence (P09619 whole entry): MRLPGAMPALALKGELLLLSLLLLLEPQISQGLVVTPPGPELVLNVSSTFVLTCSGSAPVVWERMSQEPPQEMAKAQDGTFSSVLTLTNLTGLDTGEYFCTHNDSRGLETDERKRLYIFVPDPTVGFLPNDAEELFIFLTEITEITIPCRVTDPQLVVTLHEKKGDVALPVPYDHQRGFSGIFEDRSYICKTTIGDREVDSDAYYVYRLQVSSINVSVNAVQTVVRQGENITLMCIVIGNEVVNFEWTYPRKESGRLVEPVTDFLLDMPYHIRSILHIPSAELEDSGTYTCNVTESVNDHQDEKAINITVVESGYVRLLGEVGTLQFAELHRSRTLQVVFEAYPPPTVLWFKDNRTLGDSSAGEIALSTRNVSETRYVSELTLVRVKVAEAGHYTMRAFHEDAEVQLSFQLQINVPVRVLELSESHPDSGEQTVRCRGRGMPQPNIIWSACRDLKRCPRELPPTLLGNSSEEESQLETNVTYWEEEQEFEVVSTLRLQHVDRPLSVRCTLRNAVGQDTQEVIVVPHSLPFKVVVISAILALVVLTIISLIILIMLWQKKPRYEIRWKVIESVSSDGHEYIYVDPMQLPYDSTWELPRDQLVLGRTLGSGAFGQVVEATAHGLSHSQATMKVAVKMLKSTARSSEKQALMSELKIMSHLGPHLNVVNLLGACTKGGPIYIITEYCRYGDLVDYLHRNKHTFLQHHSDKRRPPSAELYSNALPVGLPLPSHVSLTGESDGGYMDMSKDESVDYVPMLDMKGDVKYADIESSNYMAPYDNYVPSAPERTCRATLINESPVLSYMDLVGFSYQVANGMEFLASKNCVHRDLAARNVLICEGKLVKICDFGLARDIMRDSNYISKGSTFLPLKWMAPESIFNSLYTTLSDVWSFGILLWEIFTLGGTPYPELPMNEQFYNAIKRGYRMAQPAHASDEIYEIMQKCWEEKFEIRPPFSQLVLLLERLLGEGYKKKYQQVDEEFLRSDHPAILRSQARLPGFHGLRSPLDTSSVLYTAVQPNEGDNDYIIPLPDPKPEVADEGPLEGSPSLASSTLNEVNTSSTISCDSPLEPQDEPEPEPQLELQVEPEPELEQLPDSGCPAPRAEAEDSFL

On to `O=C(Nc1cccc(C(F)(F)F)n1)Nc1ccnc2cc(OC(F)F)ccc12`, for which the Ki in [1] was > 3.98 µM (inactive); in test [2], > 3.16 µM (inactive); in test [3] it was > 2 µM (inactive); in [4] it was > 3.98 µM (inactive).
Take `O=c1[nH]c2cc(Br)cnc2[nH]1`: the Ki in test [1] and in [2] was 31.6 µM (active) throughout.
In the case of `O=C(Cc1ccccc1)NC1(O)C(=O)c2ccccc2C1=O`, in test [5], the AC50 was 7.11 µM (active).
For the compound `COC(=O)c1nc(-c2ccc3c(n2)C(=O)C(=N)C(OC)=C3O)c(N)c(-c2ccc(OC)c(OC)c2O)c1C`, the EC50 in the test with BJ was 10.3 µM (active). In addition, the IC50 at Nonstructural protein 1 is > 100 µM (active). In addition, the CC50 with Vero is 0.18 µM (active). In [5], the AC50 was > 20 µM (inactive).
For the compound `Cc1cc(C)c(S(=O)(=O)/N=C2\C=C(Nc3ccc(C(=O)O)cc3)C(=O)c3ccccc32)c(C)c1`, the EC50 in test [6] was 6.73 µM (active). Moreover, the IC50 at Nonstructural protein 1 is 20.8 µM (active). Also, the CC50 with Vero was 9.71 µM (active).
With `O=C(Nc1cccc(C(F)(F)F)n1)Nc1ccnc2cc(Cl)ccc12`, the Ki in [3] is > 2 µM (inactive); in test [4], > 3.98 µM (inactive).

These data come from ChEMBL document CHEMBL1201862, “PubChem BioAssay data set” (2004).
